Results reported in article PMC10156769, “The novel anti-cancer fluoropyrimidine NUC-3373 is a potent inhibitor of thymidylate synthase and an effective DNA-damaging agent” (Cancer Chemotherapy and Pharmacology, 2023).

How the values were obtained:
[1] = biological target: T1, dUTPase (Deoxyuridine triphosphate nucleotidohydrolase) (Homo sapiens, UniProt P33316); assay: EnzChek pyrophosphate coupled assay, recombinant human dUTPase, product inhibition; format: biochemical
T1 construct: gene DUT
T1 sequence (P33316 70-252): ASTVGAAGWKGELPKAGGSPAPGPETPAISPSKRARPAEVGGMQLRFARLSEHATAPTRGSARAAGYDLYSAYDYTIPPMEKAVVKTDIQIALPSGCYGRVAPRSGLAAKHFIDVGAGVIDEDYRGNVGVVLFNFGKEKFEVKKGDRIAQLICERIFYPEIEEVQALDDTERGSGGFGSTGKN

[2] = biological target: T2, thymidylate synthase (TS) (Homo sapiens, UniProt P04818); assay: western blot shift of TS ([…] to […] kDa, ternary complex) in HCT116 and SW480 cells treated with NUC-3373 or 5-FU; format: cell-based
T2 construct: gene TYMS
T2 sequence (P04818 2-313): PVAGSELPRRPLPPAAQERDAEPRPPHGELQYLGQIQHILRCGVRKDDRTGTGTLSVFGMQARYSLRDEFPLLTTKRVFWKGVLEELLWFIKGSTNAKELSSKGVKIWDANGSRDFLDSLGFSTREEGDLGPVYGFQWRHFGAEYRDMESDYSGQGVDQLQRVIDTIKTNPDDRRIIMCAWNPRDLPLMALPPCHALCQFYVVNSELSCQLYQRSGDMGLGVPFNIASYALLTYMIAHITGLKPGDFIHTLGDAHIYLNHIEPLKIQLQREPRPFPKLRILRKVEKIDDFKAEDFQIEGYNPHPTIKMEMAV

| Ki [1] | Compound | western blot shift of TS (36 to 38 kDa, ternary complex) in HCT116 and SW480 cel [2] |
| --- | --- | --- |
| 0.62 ± 0.05 µM | O=c1[nH]c(=O)n([C@H]2C[C@H](O)[C@@H](COP(=O)(O)O)O2)cc1F [FdUMP] | The binding of FdUMP to TS, causing inhibition of the enzyme, is determined by the presence of an upper band |
| 5.8 ± 1.4 µM | O=c1ccn([C@H]2C[C@H](O)[C@@H](COP(=O)(O)O)O2)c(=O)[nH]1 [dUMP] |  |
